Entries after “also recorded” stand apart in the source; their conditions may differ.
Tests used:
[1] = tested on: RBCs re-suspended in saline / Ringer solution; settings: cited from earlier work
parasitemia = settings: patients treated with artemisinin and its derivatives vs other antimalarial drugs; cited from earlier work
[2] = tested on: co-cultured uninfected RBCs (uRBCs); test: Microfluidic deformability cytometer: cell mobility after artesunate treatment; type: cell-based, human; settings: 0.01, 0.05 or 0.1 μg/ml artesunate; 2, 4 and 6 hours after treatment
Description: (§1) The device used in this example comprises a series of equally spaced triangular pillar arrays with pore sizes ranging from 2.5 to 4 um (FIG. 55A illustrates the case of 3 um pore size). Compared to the diameter of an average RBC (˜7.5 um), the smaller pore sizes are designed to impose similar mechanical constraints on the cells as if they are passing through blood capillaries and splenic meshwork. Driven by constant pressure gradient in the sub-Pascal-per-micrometer range, RBCs are able to deform substantially at each constriction and traverse along the channel. The dynamic deformability of RBCs is then characterized by their mobility: the ability to deform repeatedly in order to pass through multiple constrictions in series.
(§2) FIG. 55A depicts an experimental schematic of the microfluidic system. A heating chamber (Olympus) was mounted to the inverted microscope stage. Four heaters for the inner water bath, microscope stage, chamber top, and lens were designed to accurately control the ambient temperature inside the chamber. The PDMS-glass bonded device consists of the inlet and outlet reservoirs and main channels with triangular pillar arrays. It was placed inside the heating chamber with only the inlet reservoir connecting to an external syringe via a 20 cm-tubing. The reservoirs were 500×500 μm^2 squares with 20 μm-interspacing cylindrical pillar arrays; these pillar arrays could pre-filter white blood cells from whole blood, allowing only RBCs to pass through the main channels. Each of the parallel channels was 10 pillars wide and 200 pillars long. Along the flow direction, the inter-pillar spacing was 10 μm. This spacing allows deformed cells to recover and ready for subsequent deformations. Perpendicular to the flow direction, the pore size varied from 2.5 to 4 μm for different channels. Cells experience different levels of deformation when passing through these pores.
(§3) FIG. 55B presents microscopic screenshots illustrating both iRBCs and co-cultured uRBCs moving in the microchannel at different temperature conditions. The uninfected cells appear as dark shadows indicated by blue arrows, and the infected cells with thiazole orange (TO) staining appear as bright dots indicated by white arrows. The mobility of individual cells can then be derived by recording the time period for each cell passing through 10 constrictions in series (i.e. equivalent to 200 μm distance travelled). In this example, cell mobility is used to characterize the dynamic deformability of individual RBCs.
(§4) The deformability of both iRBCs and uRBCs were measured at 2, 4 and 6 hours after artesunate drug treatment (FIG. 60). A synchronized culture of rings with ˜15% parasitemia was resuspended at 0.1% hematocrit in malaria culture medium containing 0.01, 0.05 or 0.1 μg/ml of artesunate.
(§5) Layout program CleWin3.0 was used to design the microfluidic device, which consists of a 500×500 μm^2 inlet reservoir, a 500×500 μm^2 outlet reservoir, and parallel capillary channels with triangular pillar arrays (FIG. 55A). Three different pore-size of 2.5, 3.0 and 4.0 μm were designed for the capillary channels to test optimum deformation condition for the experiment. A silicon mold of the device was made using standard silicon processing techniques. The photolithography step was done using a 5× reduction step-and-repeat projection stepper (Nikon NSR2005i9, Nikon Prevision) and reactive-ion etching (RIE) techniques were used to give the mold a final depth of 4.2 μm. Final device was then casted from the silicon mold using polydimethylsiloxane (PDMS) and was sealed by a glass slide using oxygen plasma.
(§6) P. falciparum 3D7A parasites (from Malaria Research and Reference Reagent Source, American Type Culture Collection) were cultured in leukocyte-free human RBCs (Research Blood Components, Brighton Mass.) in RPMI 1640 complete medium as described (Trager and Jensen J. parasitol. 2005). […]

[3] = tested on: P. falciparum-infected RBCs (iRBCs); test: as above; type: cell-based, human; settings: for iRBC deformability (cell mobility) after artesunate drug treatment: 0.01, 0.05 or 0.1 μg/ml artesunate, 2, 4 and 6 hours after treatment, synchronized rings ~15% parasitemia; for separation resolution between iRBCs and uRBCs: after artesunate drug treatment vs untreated
Description: as §1, §2, §3, §4, §5, §6

RBCs = test: Deformability cytometer: RBC velocity/passage after glutaraldehyde treatment; type: cell-based, human
Description: The device design includes periodically spaced, triangle-shaped pillars and the gaps between these pillars result in well-controlled constrictions for RBCs to pass. The height of the device was set to 4.2 μm. RBCs were forced to assume a flat orientation before entering each constriction. This height, in addition to filters at the reservoirs, prevented white blood cells from entering the device, and permitted diluted whole blood to be used directly.
A mold of the device was made on a silicon wafer using photolithography and reactive-ion etching techniques. A 5× reduction step-and-repeat projection stepper (Nikon NSR2005i9, Nikon Precision) was used for patterning. The spacing between pillars was 3 μm, and the depth of the device was 4.2 μm. The device was made using standard PDMS casting protocols and bonded to a glass slide.
PBS was mixed with 0.2% w/v Pluronic F-108 (BASF, Mount Olive, N.J.) and 1% w/v Bovine Serum Albumin (BSA) (Sigma-Aldrich, St. Louis, Mo.) as a stock solution to prevent RBC adhesion to the device walls. For the fluorescent bead experiments, 200 nm FluoSpheres europium luminescent microspheres (Molecular Probes, Eugene, Oreg.) diluted to a final concentration of 1.25×10^−5 percent solids were used.
In experiments involving blood, 1 μl of whole blood (˜50% hematocrit) was diluted in 100 μl of the PBS-pluronic-BSA solution for all of the experiments. […]

Compound: CC=O [acetaldehyde]
- RBC hardening / suspension viscosity ([1]; prolonged exposure of clean RBCs to acetaldehyde, re-suspension in Ringer solution): constant suspension viscosity over the full range of hematocrit and shear rates

Compound: C[C@@H]1CC[C@H]2[C@@H](C)C(=O)O[C@@H]3O[C@@]4(C)CC[C@@H]1[C@]32OO4 [artemisinin]
- decline in parasitemia (parasitemia): more rapid decline in parasitemia

Compound: C[C@H]1[C@H](OC(=O)CCC(=O)O)O[C@@H]2O[C@@]3(C)CC[C@H]4[C@H](C)CC[C@@H]1[C@@]24OO3 [artesunate]
- uRBC deformability (cell mobility) after artesunate drug treatment [2]: stiffening effect; also recorded: stiffened considerably
- iRBC deformability (cell mobility) after artesunate drug treatment [3]: stiffening effect; also recorded: drop in iRBC deformability is more precipitous than in uRBC
- iRBC deformability (cell mobility) after artesunate drug treatment ([3]; listed as Artesunate): significant decrease in cell mobility
- mobility decrease ([3]; 2 and 4 hours after artesunate treatment, iRBCs and uRBCs both measured): smaller and less pronounced mobility decrease
- dose dependence of mobility changes ([3]; after 4 hour drug treatment, dosage range 0.01 to 0.1 μg/ml): no statistically significant dose dependence
- separation resolution between iRBCs and uRBCs [3]: almost doubled
- separation resolution between iRBCs and uRBCs ([3]; listed as Artesunate): doubled

Compound: O=CCCCC=O [glutaraldehyde]
- RBC stiffness / velocity with increasing glutaraldehyde concentration (RBCs; 30 minutes in PBS, approx. 0.61 Pa/μm, FIG. 5B): progressively stiffer with decreasing velocity
- RBC passage into the channel (RBCs; glutaraldehyde concentrations greater than 0.003%): most RBCs were held up at the entrance to the channel

Compound: Fibrinogen
- suspension viscosity ([1]; fibrinogen added progressively to washed RBCs in pure saline): increase in viscosity with increasing fibrinogen concentration at low deformation rates
